Data set [1] can be described thus: Cytotoxicity assay in macrophages (MTT). The data set is classed as cell-based. To be noted: mouse, J774A.1 macrophages, pH 7.2. On the procedure:
L. amazonensis MHOM/BR/75/Josefa strain was originally isolated from a human case of CL by Dr. Cesar A. Cuba at the University of Brasilia, Brazil (Saraiva et al. [1983]; Cuba et al. [1985]). Promastigote forms of this strain were maintained axenically in Warren's medium (brain–heart infusion plus hemin and folic acid; pH 7.2) supplemented with 10% heat‐inactivated FBS and maintained at 25°C. J774A.1 macrophages (obtained from the Cell Bank of Rio de Janeiro, RJ, Brazil) were maintained in RPMI‐1640 medium (pH 7.2), supplemented with sodium bicarbonate, L‐glutamine, 10% FBS, and streptomycin and penicillin at 37°C in a 5% CO2 atmosphere.
Cytotoxicity was evaluated in the J774A.1 macrophages. Macrophages (5 × 10^5 cells mL^−1) were cultured in 96‐well microplates containing RPMI‐1640 medium supplemented with 10% FBS. The plates were incubated at 37°C in a 5% CO2 atmosphere for confluent growth of the cells. After 24 h, the compounds were added to each well at increasing concentrations (31.25–1000 μM) and incubated for 48 h at 37°C in a 5% CO2 atmosphere. The cytotoxicity was evaluated by MTT (2 mg mL^−1), as previously described (Mosmann [1983]). Absorbance was read in a microplate spectrophotometer (PowerWave XS; BioTek, […], VT, USA) at 570 nm.

The subject of data set [2] is L. amazonensis promastigote forms. Nature of the data set: Antiproliferative assay (XTT). It counts as cell-based, Leishmania amazonensis. To be noted: for IC50: Leishmania amazonensis, 72 h, 25°C, XTT, read-out: L. amazonensis (promastigotes) IC50; for Selectivity index (SI): ratio between the CC50 (J774A.1 macrophages) and IC50 (promastigotes). On the procedure: L. amazonensis MHOM/BR/75/Josefa strain was originally isolated from a human case of CL by Dr. […]. Cuba at the University of Brasilia, Brazil (Saraiva et al. [1983]; Cuba et al. [1985]). […] The activity against promastigotes was evaluated by XTT (0.5 mg mL^-1), as previously described (Meshulam et al. [1995]). Absorbance was read in a microplate spectrophotometer (PowerWave XS; BioTek, Winooski, VT, USA) at 450 nm.
In general terms: Tetrazolium assays rely on reduction of a dye to a coloured formazan, in cell work by metabolically active cells.

The test system of data set [3] is L. amazonensis promastigotes. Nature of the data set: Lipid peroxidation assay (DPPP). The note with it: positive control, 50 μM. It counts as cell-based, Leishmania amazonensis. How it is done:
Promastigotes at 1 × 10^6 parasites mL^−1 treated with BT‐1 for 24 h were incubated with 50 μM DPPP for 15 min at 22°C. As a positive control, 50 μM H2O2 was used. The fluorescence was determined in a Victor X3 spectrofluorimeter (PerkinElmer, Waltham, MA, USA) at λex of 355 nm and λem of 460 nm. DPPP is essentially nonfluorescent until it is oxidized to a phosphine oxide (DPPP‐O) by peroxides (Okimoto et al. [2000]).

Data set [4] concerns L. amazonensis promastigotes. Nature of the data set: Reactive oxygen species production (H2DCFDA). It counts as cell-based, Leishmania amazonensis. To be noted: positive control, 50 μM. On the procedure: Promastigotes at 1 × 10^6 parasites mL^−1 treated with BT‐1 for 24 h were incubated with 10 μM H2DCFDA in the dark for 45 min. As a positive control, 50 μM H2O2 was used. The fluorescence was determined by oxidation of H2DCFDA to the fluorescent product, 2′‐7ʹ dichlorofluorescein (DCF), which was measured in a Victor X3 spectrofluorimeter (PerkinElmer, Waltham, MA, USA) at λex of 488 nm and λem of 530 nm (Shukla et al. [2012]).

In data set [5] the test system is L. amazonensis promastigotes. The data set is described as follows: Mitochondrial membrane potential (Rh123, flow cytometry). It counts as cell-based, Leishmania amazonensis. The note with it: 24 h. How it is done: Promastigotes at 1 × 10^6 parasites mL^−1 treated with BT‐1 for 24 h were incubated with 5 μg mL^−1 Rh123, a fluorescent probe that accumulates in mitochondria, for 15 min (Menna‐Barreto, Corrêa, et al. [2009]; Menna‐Barreto, Goncalves, et al. [2009]). As a positive control, 100 μM CCCP was used. The data acquisition and analysis were performed using a FACSCalibur flow cytometer (BD Biosciences, Franklin Lakes, NJ, USA) equipped with CellQuest software. A total of 10,000 events were acquired in the region corresponding to the parasites.
In general terms: Flow cytometry measures light scatter and fluorescence of single cells or particles in a stream.

Data set [6] relates to L. amazonensis promastigotes. Nature of the data set: Cell size (FSC-H, flow cytometry). It counts as cell-based, Leishmania amazonensis. More on the design: reduction in cell size: dose or concentration left out as unconfirmed. To be noted: positive control, 24 h. On the procedure:
Promastigotes at 1 × 10^6 parasites mL^−1 treated with BT‐1 for 24 h were washed twice and resuspended in phosphate‐buffered saline (PBS), then analyzed using a FACSCalibur flow cytometer (BD Biosciences, Franklin Lakes, NJ, USA) equipped with CellQuest software. As a positive control, […] actinomycin D was used. A total of 10,000 events were acquired in the region that corresponded to the parasites. Histograms were generated for each sample, where the forward light scatter (FSC‐H) represents the cell volume (Lazarin‐Bidóia et al. [2013]).

In data set [7] the test system is L. amazonensis promastigotes. Nature of the data set: Cell membrane integrity (PI, flow cytometry). The note with it: positive control, 40 μM, 5 min. The data set is classed as cell-based, Leishmania amazonensis. How it is done:
Promastigotes at 1 × 10^6 parasites mL^−1 treated with BT‐1 for 24 h were incubated with 0.2 μg mL^−1 PI for 10 min. As a positive control, 40 μM digitonin was used. The data acquisition and analysis were performed using a FACSCalibur flow cytometer (BD Biosciences, Franklin Lakes, NJ, USA) equipped with CellQuest software. A total of 10,000 events were acquired in the region that corresponded to the parasites. Alterations in PI fluorescence were quantified as the percentage increase in fluorescence compared with the untreated parasites (Lazarin‐Bidóia et al. [2013]).

Data set [8] has as its system L. amazonensis promastigotes. The data set is described as follows: Cell cycle (PI-RNAse A, flow cytometry). It counts as cell-based, Leishmania amazonensis. The note with it: positive control, 40 μM, 24 h. On the procedure: Promastigotes at 1 × 10^6 parasites mL^−1 treated with BT‐1 for 24 h were fixed in 70% cold methanol in PBS at 4°C for 2 h. Afterward, the parasites were washed in PBS, 10 μg mL^−1 PI‐RNAse A was added, and the samples were incubated at 37°C for 45 min. The data acquisition and analysis were performed using a FACSCalibur flow cytometer (BD Biosciences, Franklin Lakes, NJ, USA) equipped with CellQuest software. A total of 10,000 events were acquired in the region that corresponded to the parasites. As a positive control, 40 μM miltefosine was used. The percentages of cells in each stage of the cell cycle were determined based on the intensity of the PI fluorescence, which is directly proportional to the DNA content.

*1 amine or outer side, *2 acyl side, *3 side chain or, on linkers, in order; H or OH if unused. Where a SMILES comes first, the peptide text is derived from it. Bridges are numbered along the chain shown (N, C = ends). Roman numbers before positions name the chains, in order. [ ]: non-standard residue; d: D form. Actinocin(9to1) = Cc1c2oc3c(C)ccc(C(=O)[*:1])c3nc-2c(C(=O)[*:2])c(N)c1=O; NMeV = CN[C@H](C(=O)O)C(C)C; Sar = CNCC(=O)O

On to `NC(=S)NN=Cc1ccc(-c2ccc(C#CCCO)s2)s1` [Compound 2d], for which the cytotoxic concentration (CC50) (usually the concentration that lowers cell viability or growth by half) at 48 h in data set [1] was determined as 224 ± 4.9 µM. Further, in data set [2], the half-maximal inhibitory concentration (IC50) (as a rule, the concentration that inhibits the measured activity by half) amounted to 41.4 ± 0.6 µM and the “Selectivity index (SI)” value was determined as 5.42.
`OO` [Compound H2O2, reference compound] returned an increase in lipoperoxidation in data set [3] of 3.6 fold. Besides, the “increase in the production of ROS” value in data set [4] amounted to 3.5 fold.
Molecule `CCCCN=Cc1ccc(-c2ccc(C#CCCO)s2)s1` [Compound 2b] gave a CC50 at 48 h in data set [1] of 274 ± 5.2 µM. For the same molecule, in data set [2], the IC50 came out at 48.5 ± 4.2 µM and the “Selectivity index (SI)” value came out at 5.65.
`CC(C)(O)C#Cc1ccc(-c2ccc(/C=N/NC(N)=S)s2)s1` [Compound 3d] displayed a CC50 at 48 h in data set [1] of 220 ± 3.8 µM. In data set [2], the IC50 turned out to be 39.5 ± 5.1 µM and the “Selectivity index (SI)” value was found to be 5.56.
Molecule `CC(C)N=Cc1ccc(-c2ccc(C#CC(C)(C)O)s2)s1` [Compound 3a] returned a CC50 at 48 h in data set [1] of 281 ± 6.2 µM. In data set [2], the IC50 was determined as 49.5 ± 3.1 µM and the “Selectivity index (SI)” value is 5.68.
Consider `CC(C)(O)C#Cc1ccc(-c2ccc(C=NC3CCCCC3)s2)s1` [Compound 3c], for which the CC50 at 48 h in data set [1] was determined as 238.5 ± 1.9 µM. Further, in data set [2], the IC50 stood at 40.1 ± 1.1 µM and the “Selectivity index (SI)” value turned out to be 5.95.
Turning to `N#CC(C#N)=NNc1cccc(Cl)c1` [CCCP, carbonyl cyanide m‐chlorophenylhydrazone, reference compound], the “Mitochondrial potential: Average (Median)” value in data set [5] (positive control 100 μM, Rh123 fluorescence) was found to be 6.38. In data set [5] (positive control, 100 μM), the “reduction in the mitochondrial membrane potential” value was 342.8 fold.
For `Cc1c2oc3c(C)ccc(C(=O)N[C@@H]4C(=O)N[C@H](C(C)C)C(=O)N5CCC[C@H]5C(=O)N(C)CC(=O)N(C)[C@@H](C(C)C)C(=O)O[C@@H]4C)c3nc-2c(C(=O)N[C@@H]2C(=O)N[C@H](C(C)C)C(=O)N3CCC[C@H]3C(=O)N(C)CC(=O)N(C)[C@@H](C(C)C)C(=O)O[C@@H]2C)c(N)c1=O` [Actinomycin D, reference compound] (I: T[dV]P[Sar][NMeV] / II: T[dV]P[Sar][NMeV]; ester I:1-I:C, II:1-II:C; linker I:N-II:N via Actinocin(9to1)), in data set [6], the “reduction in cell size” value came to 2.05 fold.
Molecule `CCCCN=Cc1ccc(-c2ccc(C#CC(C)(C)O)s2)s1` [Compound 3b] showed a CC50 at 48 h in data set [1] of 296 ± 4.1 µM. Moreover, in data set [2], the IC50 was determined as 55.3 ± 5.1 µM and the “Selectivity index (SI)” value was determined as 5.34.
As for `C[C@@H]1CC[C@@]2(OC1)O[C@H]1[C@@H](O)[C@H]3[C@@H]4CC[C@H]5C[C@@H](O[C@@H]6O[C@H](CO)[C@H](O[C@@H]7O[C@H](CO)[C@@H](O)[C@H](O[C@@H]8OC[C@@H](O)[C@H](O)[C@H]8O)[C@H]7O[C@@H]7O[C@H](CO)[C@H](O)[C@H](O[C@@H]8O[C@H](CO)[C@@H](O)[C@H](O)[C@H]8O)[C@H]7O)[C@H](O)[C@H]6O)[C@H](O)C[C@]5(C)[C@H]4CC[C@]3(C)[C@H]1[C@@H]2C` [Digitonin, digitonin, reference compound], the “increase of PI-stained cells” value in data set [7] stood at 3.10 fold.
Turning to `CC(C)(O)C#Cc1ccc(-c2ccc(C=O)s2)s1` [Compound 3, 5′‐(3‐hydroxy‐3‐methyl‐but‐1‐ynyl)‐[2,2′]bithiophenyl‐5‐carbaldehyde], the CC50 at 48 h in data set [1] worked out at 283 ± 6.7 µM. In data set [2], the IC50 came out at 94 ± 4.2 µM and the “Selectivity index (SI)” value is recorded as 3.00.
For the molecule `OCCC#Cc1ccc(-c2ccc(C=NC3CCCCC3)s2)s1` [Compound 2c], the 50% cytotoxic concentration (CC50) at 48 h in data set [1] was 271 ± 2.8 µM. Also, in data set [2], the IC50 turned out to be 51.2 ± 1.5 µM and the “Selectivity index (SI)” value amounted to 5.28.
Turning to `CCCCCCCCCCCCCCCCOP(=O)([O-])OCC[N+](C)(C)C` [Miltefosine, miltefosine, reference compound], the “increase of cells in sub-G0 phase compared with the untreated control” value in data set [8] worked out at 12.33 fold.
`O=Cc1ccc(-c2ccc(C#CCCO)s2)s1` [Compound 2, 5′‐(4‐hydroxy‐but‐1‐ynyl)‐[2,2′]bithiophenyl‐5‐carbaldehyde] showed a CC50 at 48 h in data set [1] of 198 ± 3.9 µM. In data set [2], the 50% inhibitory concentration (IC50) came out at 25.1 ± 0.8 µM and the “Selectivity index (SI)” value was 7.90.
For `CC(C)N=Cc1ccc(-c2ccc(C#CCCO)s2)s1` [Compound 2a], in that order: 289 ± 6.5 µM, 44.1 ± 2 µM and 6.56.

Values taken from article PMC12374030, “Hydroxyalkyne–Bithiophene Derivatives: Synthesis and Antileishmanial Activity” (Chemical Biology & Drug Design, 2025).
